Data published in ChEMBL document CHEMBL1806455, “Synthesis, activity and pharmacokinetics of novel antibacterial 15-membered ring macrolones” (Eur J Med Chem, 2011).
Values after ≈ are worked out from the molar mass of the structure shown.

Assays:
Staphylococcus aureus [1] = test: Antibacterial activity against erythromycin-sensitive Staphylococcus aureus ATCC 13709 by broth microdilution method; assay type: functional
Streptococcus pneumoniae [2] = test: Antibacterial activity against erythromycin-sensitive Streptococcus pneumoniae SP030 by broth microdilution method; assay type: functional
Streptococcus pyogenes [3] = test: Antibacterial activity against erythromycin-sensitive Streptococcus pyogenes 3565 by broth microdilution method; assay type: functional
Staphylococcus aureus [4] = test: Antibacterial activity against efflux-mediated macrolide-resistant Staphylococcus aureus PK1 by broth microdilution method; assay type: functional
Streptococcus pneumoniae [5] = test: Antibacterial activity against efflux-mediated macrolide-resistant Streptococcus pneumoniae Ci137 by broth microdilution method; assay type: functional
Streptococcus pyogenes [6] = test: Antibacterial activity against efflux-mediated macrolide-resistance Streptococcus pyogenes 2 Finland by broth microdilution method; assay type: functional
Staphylococcus aureus [7] = test: Antibacterial activity against inducible macrolide-lincosamide-streptogramin B resistant Staphylococcus aureus 90256 by broth microdilution method; assay type: functional
Streptococcus pneumoniae [8] = test: Antibacterial activity against inducible macrolide-resistant, constitutive lincosamide, streptogramin-resistant Streptococcus pneumoniae 134 GR M by broth microdilution method; assay type: functional
Streptococcus pyogenes [9] = test: Antibacterial activity against inducible macrolide-lincosamide-streptogramin B resistant Streptococcus pyogenes Finland 11 by broth microdilution method; assay type: functional
Staphylococcus aureus [10] = test: Antibacterial activity against constitutive macrolide, lincosamide, streptogramin-resistant Staphylococcus aureus PK2 by broth microdilution method; assay type: functional
Streptococcus pneumoniae [11] = test: Antibacterial activity against constitutive macrolide, lincosamide, streptogramin-resistant Streptococcus pneumoniae 58 spain by broth microdilution method; assay type: functional
Streptococcus pyogenes [12] = test: Antibacterial activity against macrolide, lincosamide, streptogramin-resistant Streptococcus pyogenes 166 GR-Micro by broth microdilution method; assay type: functional
Haemophilus influenzae = test: Antibacterial activity against Haemophilus influenzae ATCC 49247 by broth microdilution method; assay type: functional
Moraxella catarrhalis = test: Antibacterial activity against Moraxella catarrhalis ATCC 23246 by broth microdilution method; assay type: functional
Rattus norvegicus = test: Liver blood flow in Han Wistar rat at 10 mg/kg, iv and 50 mg/kg, po; assay type: ADME, organism-based; conditions: in vivo

SMILES | MIC (Staphylococcus aureus [1]) | MIC (Streptococcus pneumoniae [2]) | MIC (Streptococcus pyogenes [3]) | MIC (Staphylococcus aureus [4]) | MIC (Streptococcus pneumoniae [5]) | MIC (Streptococcus pyogenes [6]) | MIC (Staphylococcus aureus [7]) | MIC (Streptococcus pneumoniae [8]) | MIC (Streptococcus pyogenes [9]) | MIC (Staphylococcus aureus [10]) | MIC (Streptococcus pneumoniae [11]) | MIC (Streptococcus pyogenes [12]) | MIC (Haemophilus influenzae) | MIC (Moraxella catarrhalis) | LBF (Rattus norvegicus)
CC[C@H]1OC(=O)[C@H](C)[C@@H](O[C@H]2C[C@@](C)(OC)[C@@H](OC(=O)CCOCCOc3cc4c(=O)c(C(=O)OC(C)C)cn(C5CC5)c4cc3Cl)[C@H](C)O2)[C@H](C)[C@@H](O[C@@H]2O[C@H](C)C[C@H](N(C)C)[C@H]2O)[C@](C)(O)C[C@@H](C)CN(C)[C@H](C)[C@@H](O)[C@]1(C)O | 1 µg/mL (≈ 0.856 µM) | ≤ 0.125 µg/mL | ≤ 0.125 µg/mL | 4 µg/mL (≈ 3.42 µM) | ≤ 0.125 µg/mL | ≤ 0.125 µg/mL | 4 µg/mL (≈ 3.42 µM) | 0.5 µg/mL (≈ 0.428 µM) | ≤ 0.125 µg/mL | > 64 µg/mL | 0.25 µg/mL (≈ 0.214 µM) | 0.5 µg/mL (≈ 0.428 µM) | 2 µg/mL (≈ 1.71 µM) | 0.5 µg/mL (≈ 0.428 µM) | 
CC[C@H]1OC(=O)[C@H](C)[C@@H](O[C@H]2C[C@@](C)(OC)[C@@H](OC(=O)CCOCCOCCNc3cc4c(=O)c(C(=O)O)cn(C5CC5)c4cc3Cl)[C@H](C)O2)[C@H](C)[C@@H](O[C@@H]2O[C@H](C)C[C@H](N(C)C)[C@H]2O)[C@](C)(O)C[C@@H](C)CN(C)[C@H](C)[C@@H](O)[C@]1(C)O | 0.25 µg/mL (≈ 0.214 µM) | ≤ 0.125 µg/mL | ≤ 0.125 µg/mL | 0.25 µg/mL (≈ 0.214 µM) | ≤ 0.125 µg/mL | ≤ 0.125 µg/mL | 0.25 µg/mL (≈ 0.214 µM) | ≤ 0.125 µg/mL | ≤ 0.125 µg/mL | 16 µg/mL (≈ 13.7 µM) | ≤ 0.125 µg/mL | ≤ 0.125 µg/mL | 0.5 µg/mL (≈ 0.427 µM) | ≤ 0.125 µg/mL | 13%
CC[C@H]1OC(=O)[C@H](C)[C@@H](O[C@H]2C[C@@](C)(OC)[C@@H](OC(=O)CCOCCOc3ccc4c(c3)c(=O)c(C(=O)OC(C)C)cn4C3CC3)[C@H](C)O2)[C@H](C)[C@@H](O[C@@H]2O[C@H](C)C[C@H](N(C)C)[C@H]2O)[C@](C)(O)C[C@@H](C)CN(C)[C@H](C)[C@@H](O)[C@]1(C)O | 1 µg/mL (≈ 0.882 µM) | ≤ 0.125 µg/mL | ≤ 0.125 µg/mL | 16 µg/mL (≈ 14.1 µM) | ≤ 0.125 µg/mL | ≤ 0.125 µg/mL | 32 µg/mL (≈ 28.2 µM) | ≤ 0.125 µg/mL | ≤ 0.125 µg/mL | > 64 µg/mL | ≤ 0.125 µg/mL | ≤ 0.125 µg/mL | 4 µg/mL (≈ 3.53 µM) | 2 µg/mL (≈ 1.76 µM) | 
CC[C@H]1OC(=O)[C@H](C)[C@@H](O[C@H]2C[C@@](C)(OC)[C@@H](OC(=O)CCOCCOCCNc3ccc4c(c3)c(=O)c(C(=O)O)cn4C3CC3)[C@H](C)O2)[C@H](C)[C@@H](O[C@@H]2O[C@H](C)C[C@H](N(C)C)[C@H]2O)[C@](C)(O)C[C@@H](C)CN(C)[C@H](C)[C@@H](O)[C@]1(C)O | ≤ 0.125 µg/mL | ≤ 0.125 µg/mL | ≤ 0.125 µg/mL | ≤ 0.125 µg/mL | ≤ 0.125 µg/mL | ≤ 0.125 µg/mL | 0.5 µg/mL (≈ 0.44 µM) | ≤ 0.125 µg/mL | ≤ 0.125 µg/mL | 16 µg/mL (≈ 14.1 µM) | ≤ 0.125 µg/mL | ≤ 0.125 µg/mL | 0.5 µg/mL (≈ 0.44 µM) | 0.25 µg/mL (≈ 0.22 µM) | 
CC[C@H]1OC(=O)[C@H](C)[C@@H](O[C@H]2C[C@@](C)(OC)[C@@H](OC(=O)CCOCCNc3cc4c(=O)c(C(=O)OCCN5CCCC5)cn(C5CC5)c4cc3Cl)[C@H](C)O2)[C@H](C)[C@@H](O[C@@H]2O[C@H](C)C[C@H](N(C)C)[C@H]2O)[C@](C)(O)C[C@@H](C)CN(C)[C@H](C)[C@@H](O)[C@]1(C)O | 0.25 µg/mL (≈ 0.204 µM) | ≤ 0.125 µg/mL | ≤ 0.125 µg/mL | ≤ 0.125 µg/mL | ≤ 0.125 µg/mL | ≤ 0.125 µg/mL | 1 µg/mL (≈ 0.818 µM) | ≤ 0.125 µg/mL | ≤ 0.125 µg/mL | > 64 µg/mL | ≤ 0.125 µg/mL | ≤ 0.125 µg/mL | 4 µg/mL (≈ 3.27 µM) | ≤ 0.125 µg/mL | 
CC[C@H]1OC(=O)[C@H](C)[C@@H](O[C@H]2C[C@@](C)(OC)[C@@H](O)[C@H](C)O2)[C@H](C)[C@@H](O[C@@H]2O[C@H](C)C[C@H](N(C)C)[C@H]2O)[C@](C)(O)C[C@@H](C)CN(C)[C@H](C)[C@@H](O)[C@]1(C)O [AZITHROMYCIN] | 0.5 µg/mL (≈ 0.668 µM) | ≤ 0.125 µg/mL | ≤ 0.125 µg/mL | 32 µg/mL (≈ 42.7 µM) | 8 µg/mL (≈ 10.7 µM) | 8 µg/mL (≈ 10.7 µM) | > 64 µg/mL | > 64 µg/mL | 16 µg/mL (≈ 21.4 µM) | > 64 µg/mL | > 64 µg/mL | > 64 µg/mL | 1 µg/mL (≈ 1.34 µM) | ≤ 0.125 µg/mL | 
